Legend:
Format in all cases: cell-based
human TLR7 = molecular target: T1, human TLR7 (Homo sapiens, UniProt Q9NYK1); assay: TLR7 inhibition reporter assay (HEK-Blue SEAP); conditions: HEK-Blue cells overexpressing human TLR7, stimulated with gardiquimod 7.5 μM, 22 hour incubation
T1 construct: host or cells: HEK-Blue cells
T1 sequence (Q9NYK1 27-1049): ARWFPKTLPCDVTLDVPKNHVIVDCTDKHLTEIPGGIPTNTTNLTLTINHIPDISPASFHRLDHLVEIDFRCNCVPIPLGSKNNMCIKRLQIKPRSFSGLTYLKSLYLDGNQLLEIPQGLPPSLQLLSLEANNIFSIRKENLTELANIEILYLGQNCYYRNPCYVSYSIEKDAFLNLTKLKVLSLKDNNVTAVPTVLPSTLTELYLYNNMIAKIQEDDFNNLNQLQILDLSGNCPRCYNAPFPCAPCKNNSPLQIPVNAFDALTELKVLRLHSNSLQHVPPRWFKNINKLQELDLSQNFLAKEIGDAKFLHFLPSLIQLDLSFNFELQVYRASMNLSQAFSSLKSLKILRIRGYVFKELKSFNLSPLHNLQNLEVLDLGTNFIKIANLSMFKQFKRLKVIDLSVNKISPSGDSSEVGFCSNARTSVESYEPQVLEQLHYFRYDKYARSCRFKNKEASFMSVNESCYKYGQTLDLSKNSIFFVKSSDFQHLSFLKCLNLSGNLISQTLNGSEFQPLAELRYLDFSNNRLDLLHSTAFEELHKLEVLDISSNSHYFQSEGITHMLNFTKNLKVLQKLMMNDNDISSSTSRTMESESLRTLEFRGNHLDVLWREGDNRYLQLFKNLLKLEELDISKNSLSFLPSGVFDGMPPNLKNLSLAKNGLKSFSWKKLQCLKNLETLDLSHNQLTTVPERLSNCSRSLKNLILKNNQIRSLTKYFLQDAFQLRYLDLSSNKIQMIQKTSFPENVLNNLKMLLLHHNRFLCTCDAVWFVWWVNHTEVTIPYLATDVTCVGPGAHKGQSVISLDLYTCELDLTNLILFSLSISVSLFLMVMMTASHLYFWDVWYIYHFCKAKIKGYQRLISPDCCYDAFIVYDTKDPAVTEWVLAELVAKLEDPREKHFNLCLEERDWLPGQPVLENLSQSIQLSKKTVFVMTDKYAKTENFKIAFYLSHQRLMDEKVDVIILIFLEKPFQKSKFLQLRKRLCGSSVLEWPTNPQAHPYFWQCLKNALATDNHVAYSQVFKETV
Outline: (§1)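 Reporter HEK-Blue lines; cpd 0.05 nM–50 μM, 30 min preincubation RT; agonist: TLR7 gardiquimod 7.5 μM, TLR8 R848 15.9 μM, TLR9 ODN2006 5 nM; 22 h 37 °C; SEAP detected colorimetrically; % inhib vs known inhibitor.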

human TLR8 = molecular target: T2, human TLR8 (Homo sapiens, UniProt Q9NR97); assay: TLR8 inhibition reporter assay (HEK-Blue SEAP); conditions: HEK-Blue cells overexpressing human TLR8, stimulated with R848 15.9 μM, 22 hour incubation
T2 construct: host or cells: HEK-Blue cells
T2 sequence (Q9NR97 27-1041): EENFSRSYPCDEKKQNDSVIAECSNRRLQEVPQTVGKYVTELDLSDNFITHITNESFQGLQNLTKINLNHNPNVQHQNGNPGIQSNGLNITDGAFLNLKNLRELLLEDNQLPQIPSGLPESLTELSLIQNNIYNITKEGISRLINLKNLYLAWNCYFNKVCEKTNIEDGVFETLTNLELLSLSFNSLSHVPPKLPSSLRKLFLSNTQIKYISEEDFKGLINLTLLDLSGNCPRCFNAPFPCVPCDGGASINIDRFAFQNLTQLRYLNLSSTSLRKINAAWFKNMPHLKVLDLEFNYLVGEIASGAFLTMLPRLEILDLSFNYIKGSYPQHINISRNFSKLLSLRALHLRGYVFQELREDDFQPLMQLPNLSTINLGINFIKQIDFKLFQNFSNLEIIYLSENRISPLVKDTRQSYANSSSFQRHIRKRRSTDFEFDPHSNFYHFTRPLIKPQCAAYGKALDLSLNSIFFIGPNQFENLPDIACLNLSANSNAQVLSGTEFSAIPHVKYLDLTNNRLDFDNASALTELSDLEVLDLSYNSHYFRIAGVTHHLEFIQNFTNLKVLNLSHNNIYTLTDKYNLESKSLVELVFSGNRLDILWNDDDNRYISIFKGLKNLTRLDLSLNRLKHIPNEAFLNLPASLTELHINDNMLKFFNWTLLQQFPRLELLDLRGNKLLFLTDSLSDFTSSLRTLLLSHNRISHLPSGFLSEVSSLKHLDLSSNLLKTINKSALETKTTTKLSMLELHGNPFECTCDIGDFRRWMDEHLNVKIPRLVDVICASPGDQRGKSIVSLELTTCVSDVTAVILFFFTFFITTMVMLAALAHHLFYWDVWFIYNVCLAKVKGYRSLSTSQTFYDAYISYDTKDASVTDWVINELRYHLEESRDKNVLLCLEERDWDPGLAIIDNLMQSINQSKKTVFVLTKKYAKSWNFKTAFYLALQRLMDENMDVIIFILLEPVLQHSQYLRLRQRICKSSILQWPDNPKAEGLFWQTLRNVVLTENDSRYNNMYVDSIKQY
Outline: as §1

human TLR9 = molecular target: T3, human TLR9 (Homo sapiens, UniProt Q9NR96); assay: TLR9 inhibition reporter assay (HEK-Blue SEAP); conditions: HEK-Blue cells overexpressing human TLR9, stimulated with ODN2006 5 nM, 22 hour incubation
T3 construct: host or cells: HEK-Blue cells
T3 sequence (Q9NR96 26-1032): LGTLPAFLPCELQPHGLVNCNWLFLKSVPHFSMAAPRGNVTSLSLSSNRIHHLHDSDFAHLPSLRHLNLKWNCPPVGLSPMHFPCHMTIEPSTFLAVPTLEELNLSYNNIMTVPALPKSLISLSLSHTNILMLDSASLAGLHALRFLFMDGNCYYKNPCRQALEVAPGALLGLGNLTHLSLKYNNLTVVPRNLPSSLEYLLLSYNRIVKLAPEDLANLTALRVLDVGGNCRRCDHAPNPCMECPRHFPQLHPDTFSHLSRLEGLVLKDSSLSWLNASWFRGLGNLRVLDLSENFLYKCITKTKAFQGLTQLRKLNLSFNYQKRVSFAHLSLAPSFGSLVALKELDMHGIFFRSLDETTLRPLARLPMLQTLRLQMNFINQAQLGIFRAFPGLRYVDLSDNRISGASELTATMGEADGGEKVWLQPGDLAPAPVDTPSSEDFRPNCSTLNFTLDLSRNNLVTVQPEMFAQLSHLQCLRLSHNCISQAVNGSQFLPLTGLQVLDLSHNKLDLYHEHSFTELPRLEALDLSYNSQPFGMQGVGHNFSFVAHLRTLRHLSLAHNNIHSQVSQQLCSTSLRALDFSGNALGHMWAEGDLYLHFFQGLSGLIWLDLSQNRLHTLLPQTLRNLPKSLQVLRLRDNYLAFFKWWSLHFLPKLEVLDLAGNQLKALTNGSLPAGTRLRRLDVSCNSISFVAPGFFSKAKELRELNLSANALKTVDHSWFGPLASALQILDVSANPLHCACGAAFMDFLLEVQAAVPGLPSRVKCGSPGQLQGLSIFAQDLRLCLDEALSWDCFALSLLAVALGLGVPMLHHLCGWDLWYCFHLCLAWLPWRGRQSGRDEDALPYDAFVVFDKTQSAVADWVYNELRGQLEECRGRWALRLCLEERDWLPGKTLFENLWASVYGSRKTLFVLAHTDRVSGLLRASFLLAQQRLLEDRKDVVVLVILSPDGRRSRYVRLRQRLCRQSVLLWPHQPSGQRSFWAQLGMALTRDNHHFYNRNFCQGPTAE
Outline: as §1

IC50 (human TLR7) [µM]	IC50 (human TLR8) [µM]	IC50 (human TLR9) [µM]	SMILES
0.0033	0.0085	2.08	Cc1cc(-c2cc(C)c3ncnn3c2)cc2[nH]nc(OC3CCC(N(C)C)CC3)c12 (single isomer, unassigned) [Example 179, N,N-dimethyl-4-((4-methyl-6-(8-methyl-[1,2,4]triazolo[1,5-a]pyridin-6-yl)-1H-indazol-3-yl)oxy)cyclohexan-1-amine]
0.0013	0.0053	1.83	Cc1cc(-c2cc(C)c3ncnn3c2)cc2[nH]nc(C3CCC(N(C)C)CC3)c12 (stereo not drawn) [Example 81, N,N-dimethyl-4-(4-methyl-6-(8-methyl-[1,2,4]triazolo[1,5-a]pyridin-6-yl)-1H-indazol-3-yl)cyclohexan-1-amine]
0.289	0.149	1.89	Cc1cc(-c2ccc3c(NC4CCNCC4)n[nH]c3c2)cn2ncnc12 [Example 200, 6-(8-methyl-[1,2,4]triazolo[1,5-a]pyridin-6-yl)-N-(piperidin-4-yl)-1H-indazol-3-amine]
0.0009	0.0001	14	CCc1cc2c(C3CCC(NCCS(C)(=O)=O)CC3)n[nH]c2cc1-c1cc(C)c2ncnn2c1 (single isomer, unassigned) [Example 99, 4-(5-ethyl-6-(8-methyl-[1,2,4]triazolo[1,5-a]pyridin-6-yl)-1H-indazol-3-yl)-N-(2-(methylsulfonyl)ethyl)cyclohexan-1-amine]
0.0025	0.00015	32.3	Cc1cc(-c2cc3[nH]nc(C4CCC(N5CCC(S(C)(=O)=O)C5)CC4)c3cc2C(C)C)cn2ncnc12 (single isomer, unassigned) [Example 211, 6-(5-isopropyl-3-(4-(3-(methylsulfonyl)pyrrolidin-1-yl)cyclohexyl)-1H-indazol-6-yl)-8-methyl-[1,2,4]triazolo[1,5-a]pyridine]
0.0122	0.0017	4.94	Cc1cc2c(C3CCCN(C(=O)CN(C)C)C3)n[nH]c2cc1-c1cc(C)c2ncnn2c1 (stereo not drawn) [Example 56, 2-(dimethylamino)-1-(3-(5-methyl-6-(8-methyl-[1,2,4]triazolo[1,5-a]pyridin-6-yl)-1H-indazol-3-yl)piperidin-1-yl)ethan-1-one]
0.0024	0.0019	2.55	Cc1cc(-c2cc(C)c3ncnn3c2)cc2[nH]nc(OC3CCC(NCC(=O)N(C)C)CC3)c12 (single isomer, unassigned) [Example 186, N,N-dimethyl-2-((4-((4-methyl-6-(8-methyl-[1,2,4]triazolo[1,5-a]pyridin-6-yl)-1H-indazol-3-yl)oxy)cyclohexyl)amino)acetamide]

Continued, compound first:

SMILES	IC50 (human TLR7) [µM]	IC50 (human TLR8) [µM]	IC50 (human TLR9) [µM]
Cc1cc(-c2cc(C)c3ncnn3c2)cc2[nH]cc(C3CCNCC3)c12 [Example 2, 8-methyl-6-(4-methyl-3-(piperidin-4-yl)-1H-indol-6-yl)-[1,2,4]triazolo[1,5-a]pyridine]	0.0009	0.0199	1.04
Cc1cc2c(C3CCCNC3)n[nH]c2cc1-c1cn2ncnc2c(C)c1C (stereo not drawn) [Example 48, 7,8-dimethyl-6-(5-methyl-3-(piperidin-3-yl)-1H-indazol-6-yl)-[1,2,4]triazolo[1,5-a]pyridine]	0.0476	0.0025	2.31
Cc1cc(-c2cc(C)c3ncnn3c2)cc2[nH]cc(C3CCNCC3)c12 [Example 16, 8-methyl-6-(4-methyl-3-(piperidin-4-yl)-1H-indol-6-yl)-[1,2,4]triazolo[1,5-a]pyridine]	0.0033	0.0352	1.42
Cc1cc(-c2cc(C)c3ncnn3c2)cc2[nH]nc(C3CCNCC3)c12 [Example 27, 8-methyl-6-(4-methyl-3-(piperidin-4-yl)-1H-indazol-6-yl)-[1,2,4]triazolo[1,5-a]pyridine]	0.0066	0.0259	0.65
Cc1cc(-c2ccc3c(C4CCNCC4)n[nH]c3c2)cn2ncnc12 [Example 17, 8-methyl-6-(3-(piperidin-4-yl)-1H-indazol-6-yl)-[1,2,4]triazolo[1,5-a]pyridine]	0.388	0.328	3.19
Cc1cc2c(C3CCNC3)n[nH]c2cc1-c1cc(C)c2ncnn2c1 (stereo not drawn) [Example 26, 8-methyl-6-(5-methyl-3-(pyrrolidin-3-yl)-1H-indazol-6-yl)-[1,2,4]triazolo[1,5-a]pyridine]	0.0188	0.0015	1.32
Cc1cc(-c2cc(C)c3ncnn3c2)cc2[nH]nc(C3CCCN(C(=O)CN(C)C)C3)c12 (stereo not drawn) [Example 5, 2-(dimethylamino)-1-(3-(4-methyl-6-(8-methyl-[1,2,4]triazolo[1,5-a]pyridin-6-yl)-1H-indazol-3-yl)piperidin-1-yl)ethan-1-one]	0.0049	0.0135	1.56

Reference: patent US12172995B2, “Substituted indole and indazole compounds” (BRISTOL-MYERS SQUIBB COMPANY, priority 2018, dated 2024)
